Measurements reported in PMC9391280, “A High-Throughput Fluorescent Turn-On Assay for Inhibitors of DHHC Family Proteins” (ACS Chemical Biology, 2022).
Where two headings read alike, the source gives them in different places.

Columns and labels:
zDHHC2 [1] = target: T1, zDHHC2 (Homo sapiens, UniProt Q9UIJ5); assay: PTP fluorogenic assay, single concentration […]; assay type: biochemical
T1 sequence (Q9UIJ5 1-367): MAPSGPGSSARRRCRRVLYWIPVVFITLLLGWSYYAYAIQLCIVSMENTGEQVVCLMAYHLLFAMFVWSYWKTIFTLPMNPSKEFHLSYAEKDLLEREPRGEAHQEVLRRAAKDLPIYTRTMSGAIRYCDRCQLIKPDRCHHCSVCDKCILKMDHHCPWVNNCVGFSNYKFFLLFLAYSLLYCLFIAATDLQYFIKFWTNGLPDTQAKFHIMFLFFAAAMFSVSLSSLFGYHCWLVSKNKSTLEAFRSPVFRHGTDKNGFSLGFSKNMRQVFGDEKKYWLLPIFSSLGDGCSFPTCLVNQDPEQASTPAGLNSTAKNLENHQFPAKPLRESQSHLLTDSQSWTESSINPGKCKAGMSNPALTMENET

zDHHC3 [2] = target: T2, zDHHC3 (Homo sapiens, UniProt Q9NYG2); assay: PTP fluorogenic assay, single concentration […]; assay type: biochemical
T2 sequence (Q9NYG2 1-299): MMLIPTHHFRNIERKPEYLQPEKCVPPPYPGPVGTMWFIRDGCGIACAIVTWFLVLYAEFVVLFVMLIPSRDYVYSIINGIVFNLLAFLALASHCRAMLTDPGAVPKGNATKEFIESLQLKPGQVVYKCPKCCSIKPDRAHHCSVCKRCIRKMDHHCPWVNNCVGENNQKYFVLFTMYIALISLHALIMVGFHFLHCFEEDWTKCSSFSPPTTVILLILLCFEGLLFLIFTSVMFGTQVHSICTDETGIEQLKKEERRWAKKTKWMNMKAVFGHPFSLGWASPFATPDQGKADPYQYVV

zDHHC20 = target: T3, zDHHC20 (Homo sapiens, UniProt Q5W0Z9); assay: PTP fluorogenic turn-on assay with purified zDHHC20; assay type: biochemical
T3 sequence (Q5W0Z9 1-365): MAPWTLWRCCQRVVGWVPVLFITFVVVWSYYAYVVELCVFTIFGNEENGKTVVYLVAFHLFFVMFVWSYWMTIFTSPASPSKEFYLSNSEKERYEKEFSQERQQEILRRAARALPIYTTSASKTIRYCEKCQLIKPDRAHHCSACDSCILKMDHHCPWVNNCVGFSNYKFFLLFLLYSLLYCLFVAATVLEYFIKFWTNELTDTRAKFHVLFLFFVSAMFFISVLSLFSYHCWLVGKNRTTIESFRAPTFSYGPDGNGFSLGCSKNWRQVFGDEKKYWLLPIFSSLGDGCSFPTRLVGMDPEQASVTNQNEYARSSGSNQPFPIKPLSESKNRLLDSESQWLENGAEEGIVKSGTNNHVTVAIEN

zDHHC2 [3] = target: T1, zDHHC2; assay: fluorogenic probe uncaging by purified enzyme ([…] probe); assay type: biochemical
zDHHC3 [4] = target: T2, zDHHC3; assay: as above; assay type: biochemical
purified protein = substrate: CCCCCCCCCCCCCCCC(=O)SCCN(C)C(=O)Oc1ccc2c(c1)Oc1cc(N3CCN(C(=O)CCCC(=O)O)CC3)ccc1C21OC(=O)c2ccccc21; assay: purified protein; conditions: palmitoyl-CoA mimetic; turnover depends on the key catalytic cysteine of the DHHC motif

CCCCCCCCCCCCCCC(Br)C(=O)O (stereo not shown) [2BP, 2-Bromopalmitate]
PTP fluorogenic assay, single concentration 20 μM (zDHHC2 [1]): both CMA and 2BP were able to inhibit zDHHC2, zDHHC3, and zDHHC20
PTP fluorogenic assay, single concentration 20 μM (zDHHC3 [2]): both CMA and 2BP were able to inhibit zDHHC2, zDHHC3, and zDHHC20
IC50 (zDHHC20): 2020 ± 290 nM

C=CC(=O)N(CC#N)CCCCCCCCCCCCCC [CMA, cyanomyracrylamide]
IC50 (zDHHC20; read-out: IC50): 463 ± 70 nM

CCCCCCCCCCCCCCCC(=O)SCCN(C)C(=O)Oc1ccc2c(c1)Oc1cc(N3CCN(C(=O)CCN4CCOCC4)CC3)ccc1C21OC(=O)c2ccccc21 (stereo not shown) [PTP-3]
fluorogenic probe uncaging by purified enzyme (4 μM probe) (zDHHC2 [3]): PTP-3, the morpholino compound, was the best substrate for these two DHHCs
fluorogenic probe uncaging by purified enzyme (4 μM probe) (zDHHC3 [4]): PTP-3, the morpholino compound, was the best substrate for these two DHHCs

B1: zDHHC20 (Homo sapiens) (protein)
chain: T3 sequence (Q5W0Z9 1-365)
Km (purified protein): 24.3 µM
